According to the supplement of paper PMC3937590:
Each block holds one compound with its values, some of them ahead of it.

Key:
Experiment in all cases: -log10 GI50 (growth inhibition 50%) (-log10(M)); higher = more potent growth inhibition
MDAMB134VI = system: MDAMB134VI
In short: (§1)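 Breast cancer cell lines were exposed to each compound for 72 hours at nine doses in 1:5 serial dilution, in triplicate, with a luminescence read-out against a time-zero plate. A Gompertz curve was fitted to the dose-response data by nonlinear least squares. The value is minus log10 of GI50, the molar concentration giving the set level of growth inhibition. Values equal to the top dose carry a < qualifier.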

HCC1569 = system: HCC1569
In short: as §1

MDAMB157 = system: MDAMB157
In short: as §1

T47D = system: T47D
In short: as §1

SUM159PT = system: SUM159PT
In short: as §1

SUM52PE = system: SUM52PE
In short: as §1

SUM185PE = system: SUM185PE
In short: as §1

ZR75B = system: ZR75B
In short: as §1

MCF10F = system: MCF10F
In short: as §1

HCC1419 = system: HCC1419
In short: as §1

SUM229PE = system: SUM229PE
In short: as §1

MCF12A = system: MCF12A
In short: as §1

BT549 = system: BT549
In short: as §1

BT20 = system: BT20
In short: as §1

184B5 = system: 184B5
In short: as §1

CAMA1 = system: CAMA1
In short: as §1

SUM149PT = system: SUM149PT
In short: as §1

MCF7 = system: MCF7
In short: as §1

MX1 = system: MX1
In short: as §1

UACC812 = system: UACC812
In short: as §1

MDAMB175VII = system: MDAMB175VII
In short: as §1

MDAMB361 = system: MDAMB361
In short: as §1

BT483 = system: BT483
In short: as §1

BT474 = system: BT474
In short: as §1

184A1 = system: 184A1
In short: as §1

T47D_KBluc = system: T47D_KBluc
In short: as §1

HCC1937 = system: HCC1937
In short: as §1

HCC38 = system: HCC38
In short: as §1

AU565 = system: AU565
In short: as §1

MDAMB415 = system: MDAMB415
In short: as §1

HCC2185 = system: HCC2185
In short: as §1

HS578T = system: HS578T
In short: as §1

HCC1428 = system: HCC1428
In short: as §1

600MPE = system: 600MPE
In short: as §1

HCC1395 = system: HCC1395
In short: as §1

HCC1806 = system: HCC1806
In short: as §1

MCF10A = system: MCF10A
In short: as §1

HCC3153 = system: HCC3153
In short: as §1

HCC1954 = system: HCC1954
In short: as §1

MDAMB231 = system: MDAMB231
In short: as §1

MDAMB453 = system: MDAMB453
In short: as §1

ZR751 = system: ZR751
In short: as §1

SUM1315MO2 = system: SUM1315MO2
In short: as §1

HCC1143 = system: HCC1143
In short: as §1

SUM225CWN = system: SUM225CWN
In short: as §1

SKBR3 = system: SKBR3
In short: as §1

HCC1187 = system: HCC1187
In short: as §1

HCC70 = system: HCC70
In short: as §1

LY2 = system: LY2
In short: as §1

-log10 GI50 (MDAMB134VI): 7.05 | -log10 GI50 (HCC1569): 6.81 | -log10 GI50 (MDAMB157): 7.29 | -log10 GI50 (T47D): 6.82 | -log10 GI50 (HCC1419): 7.23 | -log10 GI50 (BT549): 6.91 | -log10 GI50 (BT20): 6.41 | -log10 GI50 (MCF7): 7.1 | -log10 GI50 (MDAMB175VII): 6.41 | -log10 GI50 (MDAMB361): 7.46 | -log10 GI50 (BT483): 7.14 | -log10 GI50 (BT474): 7.46 | -log10 GI50 (T47D_KBluc): 6.88 | -log10 GI50 (HCC1937): 6.72 | -log10 GI50 (HCC38): 7.45 | -log10 GI50 (MDAMB415): 7.66 | -log10 GI50 (HCC2185): 7.16 | -log10 GI50 (HCC1428): 6.98 | -log10 GI50 (HCC1395): 6.56 | -log10 GI50 (HCC1806): 6.82 | -log10 GI50 (HCC3153): 6.53 | -log10 GI50 (HCC1954): 6.43 | -log10 GI50 (MDAMB231): 6.68 | -log10 GI50 (MDAMB453): 7.31 | -log10 GI50 (HCC1143): 7.09 | -log10 GI50 (SKBR3): 7.25 | -log10 GI50 (HCC1187): 6.76
SMILES: Cc1[nH]c2ccccc2c1CCNCc1ccc(/C=C/C(=O)NO)cc1 [LBH589]
-log10 GI50 (SUM159PT): 6.88 | -log10 GI50 (SUM52PE): 6.83 | -log10 GI50 (SUM185PE): 7.11 | -log10 GI50 (ZR75B): 7.08 | -log10 GI50 (MCF10F): 6.04 | -log10 GI50 (SUM229PE): 6.57 | -log10 GI50 (MCF12A): 6.35 | -log10 GI50 (184B5): 6.99 | -log10 GI50 (CAMA1): 7.3 | -log10 GI50 (SUM149PT): 6.6 | -log10 GI50 (MX1): 7.47 | -log10 GI50 (UACC812): 6.89 | -log10 GI50 (184A1): 6.56 | -log10 GI50 (AU565): 6.98 | -log10 GI50 (HS578T): 6.55 | -log10 GI50 (600MPE): 6.72 | -log10 GI50 (MCF10A): 6.84 | -log10 GI50 (ZR751): 6.8 | -log10 GI50 (SUM1315MO2): 6.62 | -log10 GI50 (SUM225CWN): 6.96 | -log10 GI50 (HCC70): 7.11

-log10 GI50 (MDAMB134VI): 4.74 | -log10 GI50 (HCC1569): 4.79 | -log10 GI50 (MDAMB157): 4.26 | -log10 GI50 (T47D): 4.82 | -log10 GI50 (HCC1419): 4.54 | -log10 GI50 (BT549): 4.6 | -log10 GI50 (MCF7): 4.63 | -log10 GI50 (MDAMB175VII): 4.28 | -log10 GI50 (MDAMB361): 4.58 | -log10 GI50 (BT474): 4.79 | -log10 GI50 (T47D_KBluc): 4.43 | -log10 GI50 (HCC1937): 4.27 | -log10 GI50 (HCC38): 5.03 | -log10 GI50 (MDAMB415): 4.58 | -log10 GI50 (HCC2185): 4.84 | -log10 GI50 (HCC1428): 4.87 | -log10 GI50 (HCC1395): 5.03 | -log10 GI50 (HCC1806): 4.81 | -log10 GI50 (HCC3153): 4.8 | -log10 GI50 (HCC1954): 4.34 | -log10 GI50 (MDAMB453): 4.91 | -log10 GI50 (HCC1143): 4.87 | -log10 GI50 (SKBR3): 4.51 | -log10 GI50 (HCC1187): 5.11
SMILES: NS(=O)(=O)c1ccc(Nc2nc(OCC3CCCCC3)c3[nH]cnc3n2)cc1 [NU6102]
-log10 GI50 (SUM159PT): 4.9 | -log10 GI50 (SUM52PE): 5.27 | -log10 GI50 (SUM185PE): 5.02 | -log10 GI50 (ZR75B): 4.85 | -log10 GI50 (MCF10F): 5 | -log10 GI50 (SUM229PE): 5.1 | -log10 GI50 (MCF12A): 4.8 | -log10 GI50 (184B5): 5.39 | -log10 GI50 (CAMA1): 4.79 | -log10 GI50 (SUM149PT): 5.14 | -log10 GI50 (MX1): 5.47 | -log10 GI50 (UACC812): 4.42 | -log10 GI50 (184A1): 5.22 | -log10 GI50 (LY2): 4.56 | -log10 GI50 (AU565): 4.64 | -log10 GI50 (HS578T): 4.69 | -log10 GI50 (MCF10A): 5.32 | -log10 GI50 (ZR751): 4.82 | -log10 GI50 (SUM1315MO2): 5.42 | -log10 GI50 (SUM225CWN): 4.3 | -log10 GI50 (HCC70): 4.71
